# Source: patent publication US4352803A, “Novel naphthyridine derivatives, intermediates thereof, processes for preparation thereof, and use thereof” (Dainippon Pharmaceutical Co., Ltd., priority 1978, dated 1982)
# Structures can show the parent of a compound that is named as a salt. Where two headings read alike, the source gives them in different places.
# Columns and labels:
# [1] = tested on: Streptococcus pyogenes 65A; assay: In vitro antibacterial activity (MIC), Streptococcus pyogenes 65A; type: cell-based; details: read-out: minimum inhibitory concentration (MIC)
# Description: (§1) (MIC) (μg/ml) Method; Chemotherapy, 22(6), 1126 (1974)
# [2] = tested on: Pseudomonas aeruginosa Tsuchijima; assay: In vitro antibacterial activity (MIC), Pseudomonas aeruginosa Tsuchijima; type: cell-based; details: read-out: minimum inhibitory concentration (MIC)
# Description: as §1
# [3] = tested on: Staphylococcus aureus No. 50774; assay: in vivo efficacy against systemic infection in mice, Staphylococcus aureus No. 50774; details: NO.50774, in Mus musculus, po, 336 h
# Procedure: Male mice (ddY) weighing about 20 g
# Intravenous infection with (about
# 5 × 10^8 cells/mouse) of a bacterial
# (§2) Twice, about 5 minutes and 6 hours after infection.
# [4] = tested on: Staphylococcus aureus No. 50774; assay: In vitro antibacterial activity (MIC), Staphylococcus aureus No. 50774; type: cell-based
# Description: as §1
# Escherichia coli P-5101 [5] = assay: In vitro antibacterial activity (MIC), Escherichia coli P-5101; type: cell-based
# Description: as §1
# [6] = tested on: Shigella flexneri 4a P-330; assay: In vitro antibacterial activity (MIC), Shigella flexneri 4a P-330; type: cell-based; details: 4AP330, read-out: minimum inhibitory concentration (MIC)
# Description: as §1
# Escherichia coli P-5101 [7] = assay: in vivo efficacy against systemic infection in mice, Escherichia coli P-5101; details: P5101, in Mus musculus, po, 168 h
# Procedure: Male mice (ddY) weighing about 20 g
# Intraperitoneal infection with (about
# 9 × 10^6 cells/mouse) of a bacterial
# (§3) suspension in trypto-soy broth with 4% mucin.
# as §2
# Escherichia coli P-140a = assay: In vitro antibacterial activity (MIC), Escherichia coli P-140a; type: cell-based; details: P140A; Escherichia coli P-140a; read-out: minimum inhibitory concentration (MIC)
# Description: as §1
# [8] = tested on: Salmonella enteritidis No. 1891; assay: In vitro antibacterial activity (MIC), Salmonella enteritidis No. 1891; type: cell-based; details: Salmonella enterica, read-out: minimum inhibitory concentration (MIC)
# Description: as §1
# [9] = tested on: Streptococcus faecalis P-2473; assay: In vitro antibacterial activity (MIC), Streptococcus faecalis P-2473; type: cell-based; details: Enterococcus faecalis
# Description: as §1
# [10] = tested on: Salmonella typhimurium 8-9; assay: In vitro antibacterial activity (MIC), Salmonella typhimurium 8-9; type: cell-based; details: Salmonella enterica, read-out: minimum inhibitory concentration (MIC)
# Description: as §1
# [11] = tested on: Enterobacter cloacae P-2540; assay: In vitro antibacterial activity (MIC), Enterobacter cloacae P-2540; type: cell-based
# Description: as §1
# Proteus morganii Kono = assay: In vitro antibacterial activity (MIC), Proteus morganii Kono; type: cell-based; details: Morganella morganii, read-out: minimum inhibitory concentration (MIC)
# Description: as §1
# [12] = tested on: Corynebacterium pyogenes C-21; assay: In vitro antibacterial activity (MIC), Corynebacterium pyogenes C-21; type: cell-based; details: Rhodococcus (subgen. Prescottella) equi
# Description: as §1
# [13] = tested on: Serratia marcescens IFC 3736; assay: In vitro antibacterial activity (MIC), Serratia marcescens IFC 3736; type: cell-based
# Description: as §1
# [14] = tested on: Klebsiella pneumoniae No. 13; assay: In vitro antibacterial activity (MIC), Klebsiella pneumoniae No. 13; type: cell-based
# Description: as §1
# [15] = tested on: Escherichia coli NIHJ JC-2; assay: In vitro antibacterial activity (MIC), Escherichia coli NIHJ JC-2; type: cell-based
# Description: as §1
# in vivo = details: mouse, in vivo, po
# Procedure: The number of dead mice was counted after 7 days, and the value of median lethal dose (LD50, mg/kg) was calculated in accordance with the Behrens-Kaerber method.
# [16] = tested on: Pseudomonas aeruginosa No. 12; assay: in vivo efficacy against systemic infection in mice, Pseudomonas aeruginosa No. 12; details: NO.12, in Mus musculus, po, 168 h
# Procedure: Male mice (ddY) weighing about 20 g
# (3) Pseudomonas aeruginosa No. 12;
# (about 5 × 10^3 cells/mouse) of a bacterial
# as §3, §2
# The numerals in the table show ED50 (mg/kg). ED50 values were
# [17] = tested on: Pseudomonas aeruginosa No. 12; assay: In vitro antibacterial activity (MIC), Pseudomonas aeruginosa No. 12; type: cell-based
# Description: as §1
# [18] = tested on: Staphylococcus aureus 209P JC-1; assay: In vitro antibacterial activity (MIC), Staphylococcus aureus 209P JC-1; type: cell-based; details: read-out: minimum inhibitory concentration (MIC)
# Description: as §1
# Shigella flexneri 2a = assay: In vitro antibacterial activity (MIC), Shigella flexneri 2a; type: cell-based; details: read-out: minimum inhibitory concentration (MIC)
# Description: as §1
# Proteus mirabilis P-2381 = assay: In vitro antibacterial activity (MIC), Proteus mirabilis P-2381; type: cell-based; details: P2381; Proteus mirabilis P-2381; read-out: minimum inhibitory concentration (MIC)
# Description: as §1
# [19] = tested on: Gram-positive and Gram-negative bacteria; assay: in vivo therapeutic efficacy against systemic infections in mice (overall); design: species or system mice (ddY)
# [20] = Staphylococcus aureus No. 50774, read-out: minimum inhibitory concentration (MIC)
# [21] = Salmonella enteritidis No. 1891
# [22] = P2473, Streptococcus faecalis P-2473, read-out: minimum inhibitory concentration (MIC)
# [23] = P2540, Enterobacter cloacae P-2540, read-out: minimum inhibitory concentration (MIC)
# [24] = C21, Corynebacterium pyogenes C-21, read-out: minimum inhibitory concentration (MIC)
# [25] = IFC3736, Serratia marcescens IFC 3736, read-out: minimum inhibitory concentration (MIC)
# [26] = Klebsiella pneumoniae No. 13, read-out: minimum inhibitory concentration (MIC)
# [27] = Pseudomonas aeruginosa No. 12, read-out: minimum inhibitory concentration (MIC)
# [28] = Staphylococcus aureus 209P JC-1
# [29] = Escherichia coli, P5101, read-out: minimum inhibitory concentration (MIC)
# [30] = Escherichia coli, NIHJJC2, read-out: minimum inhibitory concentration (MIC)
SMILES,MIC ([1]; Streptococcus pyogenes 65A) [µg/mL],ED50 [3] [mg/kg],"MIC [4, 20] [µg/mL]",MIC [6] [µg/mL],ED50 (Escherichia coli P-5101 [7]) [mg/kg],MIC (Escherichia coli P-140a) [µg/mL],"MIC [8, 21] [µg/mL]","MIC [9, 22] [µg/mL]",MIC ([10]; Salmonella typhimurium 8-9) [µg/mL],"MIC [11, 23] [µg/mL]",MIC (Proteus morganii Kono; Proteus morganii Kono) [µg/mL],"MIC [12, 24] [µg/mL]","MIC [13, 25] [µg/mL]","MIC [14, 26] [µg/mL]",ED50 [16] [mg/kg],"MIC [17, 27] [µg/mL]","MIC [18, 28] [µg/mL]",MIC (Shigella flexneri 2a) [µg/mL],MIC (Proteus mirabilis P-2381) [µg/mL],MIC ([2]; Pseudomonas aeruginosa) [µg/mL],also measured
"C=Cn1cc(C(=O)O)c(=O)c2cc(Cl)c(N3CCNCC3)nc21 [Compound 4, 6-Chloro-1,4-dihydro-4-oxo-7-(1-piperazinyl)-1-vinyl-1,8-naphthyridine-3-carboxylic acid]",6.25,~100,6.25,0.2,4.8,0.1,0.2,12.5,0.2,0.2,0.2,6.25,0.78,0.39,18.5,1.56,3.13,0.2,0.78,,"MIC ([2]; Pseudomonas aeruginosa Tsuchijima): 1.56 µg/mL; MIC (Escherichia coli P-5101 [5]; P5101, Escherichia coli P-5101, read-out: minimum inhibitory concentration (MIC)): 0.1 µg/mL; MIC ([15]; NIHJJC2, Escherichia coli NIHJ JC-2, read-out: minimum inhibitory concentration (MIC)): 0.2 µg/mL; LD50 at 168 h (in vivo): > 2000 mg/kg"
"CC1(C)S[C@@H]2[C@H](NC(=O)C(C(=O)Oc3ccc4c(c3)CCC4)c3ccccc3)C(=O)N2[C@H]1C(=O)O (stereo partly drawn) [G, α-(5-Indanyloxycarbonyl)benzylpenicillin sodium salt]",0.2,10 to 40,0.78,6.25,100,50,0.78,50,0.78,3.13,0.78,3.13,3.13,> 200,202,50,0.39,12.5,0.78,6.25,"MIC (Escherichia coli P-5101 [5]; [29]): 6.25 µg/mL; MIC [15, 30]: 6.25 µg/mL"
"CCOC(=O)c1cn(CC)c2nc(N3CCNCC3)c(F)cc2c1=O [ethyl ester of compound 1, Ethyl 1-ethyl-6-fluoro-1,4-dihydro-4-oxo-7-(1-piperazinyl)-1,8-naphthyridine-3-carboxylate]",,~20,,,,,,,,,,,,,21,,,,,,therapeutic effect / in vivo antibacterial activity (in words) ([19]; systemic infections with Gram-positive and Gram-negative bacteria): superior antibacterial activity in vivo
"CCn1cc(C(=O)O)c(=O)c2ccc(C)nc21 [E, 1-Ethyl-1,4-dihydro-7-methyl-4-oxo-1,8-naphthyridine-3-carboxylic acid]",,> 800,,,29.2,,,,,,,,,,> 200,,,6.25,,200,"MIC ([1]; Streptococcus pyogenes, 65A): > 200 µg/mL; therapeutic effects in vivo against Gram-negative bacteria, relative to compounds 1, 1' and 2 ([19]; Gram-negative, particularly Pseudomonas aeruginosa): clearly inferior; MIC ([4]; Staphylococcus aureus, NO.50774, read-out: minimum inhibitory concentration (MIC)): 50 µg/mL; MIC (Escherichia coli P-5101 [5]; [29]): 3.13 µg/mL; MIC ([8]; ENTERITIDIS): 3.13 µg/mL; MIC ([9]; P2473, read-out: minimum inhibitory concentration (MIC)): > 200 µg/mL; MIC ([10]; TYPHIMURIUM): 3.13 µg/mL; MIC ([11]; Enterobacter cloacae, P2540, read-out: minimum inhibitory concentration (MIC)): 6.25 µg/mL; MIC (Proteus morganii Kono): 6.25 µg/mL; MIC ([12]; C21, read-out: minimum inhibitory concentration (MIC)): > 200 µg/mL; MIC ([13]; Serratia marcescens, IFC3736, read-out: minimum inhibitory concentration (MIC)): 6.25 µg/mL; MIC ([14]; Klebsiella pneumoniae, NO.13, read-out: minimum inhibitory concentration (MIC)): 12.5 µg/mL; MIC [15, 30]: 12.5 µg/mL; MIC ([17]; Pseudomonas aeruginosa, NO.12, read-out: minimum inhibitory concentration (MIC)): 200 µg/mL; MIC ([18]; Staphylococcus aureus, 209P): 100 µg/mL"
